Source: US9115151B2, “Substituted 2,10-dihydro-9-oxa-1,2,4A-triazaphenanthren-3-ones and uses thereof” (AbbVie Inc., priority 2012, dated 2015)

Experiments:
PKCθ = molecular target: T1, PKCθ (Homo sapiens, UniProt Q04759); assay: In vitro enzyme assay (time-resolved fluorescence kinase assay), PKCθ, 100 μM ATP; assay type: biochemical
T1 construct: His6; purchased Millipore; host or cells: baculovirus in Sf21 cells
Outline: (§1)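 Read-out was time-resolved fluorescence, corrected for a minus-enzyme blank and converted to percent activity relative to enzyme without drug. They were stopped with EDTA.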

[1] = test system: CD3/CD28 induced IL-2 in human T-Blasts; assay: T-Blasts CD3/CD28 induced IL-2 assay; assay type: cell-based; settings: read-out: CD3/CD28-stimulated IL2 in T-blasts EC50
Outline: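 PHA-generated human T-blasts, 2×10^5 per well, preincubated 30 min with 8-point 1/3 compound dilutions in duplicate, then stimulated with anti-CD3+anti-CD28 (5 μg/mL final) for 24 h at 37° C. Supernatant IL-2 measured; MTT toxicity run on remaining cells.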

PKCα = molecular target: T2, PKCα (Homo sapiens, UniProt P17252); assay: In vitro enzyme assay (time-resolved fluorescence kinase assay), PKCα, 100 μM ATP; assay type: biochemical; settings: 100 μM ATP; read-out: PKCα enzyme IC50
T2 construct: His6; purchased Millipore; host or cells: baculovirus in Sf21 cells
Outline: as §1

T1 sequence (Q04759 whole entry): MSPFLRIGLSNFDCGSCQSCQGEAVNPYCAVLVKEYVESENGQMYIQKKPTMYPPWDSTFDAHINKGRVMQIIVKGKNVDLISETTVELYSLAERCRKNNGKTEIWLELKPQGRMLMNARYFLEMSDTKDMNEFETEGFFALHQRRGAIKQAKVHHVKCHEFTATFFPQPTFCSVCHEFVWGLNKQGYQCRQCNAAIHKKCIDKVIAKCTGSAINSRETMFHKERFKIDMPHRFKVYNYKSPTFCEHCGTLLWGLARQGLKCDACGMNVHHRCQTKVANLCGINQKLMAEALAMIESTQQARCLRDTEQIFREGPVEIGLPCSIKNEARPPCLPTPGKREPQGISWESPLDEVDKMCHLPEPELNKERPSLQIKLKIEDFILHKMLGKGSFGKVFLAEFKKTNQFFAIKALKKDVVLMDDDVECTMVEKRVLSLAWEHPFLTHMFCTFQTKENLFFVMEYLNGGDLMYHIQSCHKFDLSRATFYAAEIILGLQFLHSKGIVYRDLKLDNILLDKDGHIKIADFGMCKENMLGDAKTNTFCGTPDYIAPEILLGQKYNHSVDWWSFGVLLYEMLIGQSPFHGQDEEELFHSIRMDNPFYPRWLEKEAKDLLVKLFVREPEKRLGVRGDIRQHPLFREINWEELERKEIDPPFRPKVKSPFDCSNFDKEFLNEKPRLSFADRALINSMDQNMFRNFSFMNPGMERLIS

| SMILES | IC50 (PKCθ) [nM] | EC50 [1] [nM] | IC50 (PKCα) [nM] |
| --- | --- | --- | --- |
| CC(=O)N1CC(C)(N(C)c2cc3c(cc2-c2ccccc2F)OCC2=NNC(=O)[C@@H](C)N23)C1 [Example 183, (R)-6-[(1-Acetyl-3-methyl-azetidin-3-yl)-methyl-amino]-7-(2-fluoro-phenyl)-4-methyl-2,10-dihydro-9-oxa-1,2,4a-triaza-phenanthren-3-one] | < 250 | 250 to 1000 | 1000 to 10000 |
| C[C@@H]1C(=O)NN=C2COc3cc(-c4ccccc4F)c([C@@H]4CCCNCC4)cc3N21 [Example 218] | < 250 | 250 to 1000 | 1000 to 10000 |
| CC1C(=O)NN=C2COc3ccc(CC4CNC4)cc3N21 (stereo not drawn) [Example 78, 6-Azetidin-3-ylmethyl-4-methyl-2,10-dihydro-9-oxa-1,2,4a-triaza-phenanthren-3-one trifluoroacetic acid] | < 250 | < 250 | 1000 to 10000 |
| CC1C(=O)NN=C2COc3cc(F)c(OC4CNC4)cc3N21 (stereo not drawn) [Example 123, 9-(Azetidin-3-yloxy)-8-fluoro-1-methyl-3,5-dihydrobenzo[5,6][1,4]oxazino[3,4-c][1,2,4]triazin-2(1H)-one trifluoroacetic acid] | 250 to 1000 | 1000 to 10000 | 1000 to 10000 |
| CC1C(=O)NN=C2COc3cc(OCc4ccccc4)c(NC4CNC4)cc3N21 (stereo not drawn) [Example 127, 6-(Azetidin-3-ylamino)-7-benzyloxy-4-methyl-2,10-dihydro-9-oxa-1,2,4a-triaza-phenanthren-3-one trifluoroacetic acid] | < 250 | 250 to 1000 | 1000 to 10000 |
| Cc1cc2c(cc1N1CCC13CCNCC3)N1C(=NNC(=O)C1C)CO2 (stereo not drawn) [Example 115, 1,8-Dimethyl-9-(1,7-diazaspiro[3.5]nonan-1-yl)-3,5-dihydrobenzo[5,6][1,4]oxazino[3,4-c][1,2,4]triazin-2(1H)-one trifluoroacetic acid] | < 250 | < 250 | 1000 to 10000 |
| CC1C(=O)NN=C2COc3cc(-c4cccc(F)c4)c(N(C)C4(C)CN(C)C4)cc3N21 (stereo not drawn) [Example 169] | < 250 | < 250 | 250 to 1000 |
| CC1C(=O)NN=C2COc3cc(C(F)(F)F)c(C4CCNC(Cc5ccccc5)C4)cc3N21 (stereo not drawn) [Example 116, 9-(2-Benzylpiperidin-4-yl)-1-methyl-8-(trifluoromethyl)-3,5-dihydrobenzo[5,6][1,4]oxazino[3,4-c][1,2,4]triazin-2(1H)-one trifluoroacetic acid] | < 250 | 250 to 1000 | 1000 to 10000 |
| C[C@@H]1C(=O)NN=C2COc3cc(-c4ccccc4F)c(N4CCN(C)[C@@H](C)C4)cc3N21 [Example 232] | < 250 | < 250 | 250 to 1000 |
| Cc1ccc(-c2cc3c(cc2NC2CNC2)N2C(=NNC(=O)C2C)CO3)cc1F (racemic) [Example 18] | < 250 | < 250 | 1000 to 10000 |
| Cc1cc(F)cc(-c2cc3c(cc2NC2CNC2)N2C(=NNC(=O)C2C)CO3)c1 (racemic) [Example 33] | < 250 | 250 to 1000 | 1000 to 10000 |
| C[C@@H]1C(=O)NN=C2COc3cc(-c4ccccc4F)c(N(C)C4(C)CN(C5COC5)C4)cc3N21 [Example 194] | < 250 | 250 to 1000 | 250 to 1000 |
| COCCN1CC(C)([C@H](C)c2cc3c(cc2-c2ccccc2F)OCC2=NNC(=O)[C@@H](C)N23)C1 [Example 145] | < 250 | 250 to 1000 | 1000 to 10000 |
| C[C@@H]1C(=O)NN=C2COc3cc(-c4ccccc4Cl)c(N(C)C4(C)CN(C)C4)cc3N21 [Example 177] | < 250 | < 250 | 250 to 1000 |
| CC1C(=O)NN=C2COc3cc(-c4ccc(C(C)(C)C)cc4)c(NC4CNC4)cc3N21 (racemic) [Example 26] | 250 to 1000 | < 250 | 1000 to 10000 |
| C[C@@H]1C(=O)NN=C2COc3cc(-c4ccc(F)cc4)c(NC4CNC4)cc3N21 [Example 9] | < 250 | < 250 | 1000 to 10000 |
| CC1C(=O)NN=C2COc3cc(-c4ccccc4)c(N(C)C4(C)CNC4)cc3N21 (stereo not drawn) [Example 90] | < 250 | < 250 | < 250 |
| C[C@@H]1C(=O)NN=C2COc3cc(-c4ccccc4F)c([C@H]4CCCNC4)cc3N21 [Example 216] | < 250 | 250 to 1000 | 1000 to 10000 |
| C[C@@H]1C(=O)NN=C2COc3cc(-c4c(F)cccc4F)c(C4CCNCC4)cc3N21 [Example 213] | < 250 | < 250 | 1000 to 10000 |
| C[C@@H]1CN(C)CCN1c1cc2c(cc1-c1ccccc1F)OCC1=NNC(=O)[C@@H](C)N12 [Example 230] | < 250 | < 250 | 250 to 1000 |
